From patent US12697337B2, “Solid dispersions” (InventisBio Co., Ltd., priority 2021, dated 2026)

Experiments:
[1] = 1-week stability evaluation of SDD; assay type: physicochemical; details: for Appearance / Purity (%) / XRPD: 1 week; for Initial purity (%): before storage
Experimental: A brief description of the methods used for PLM, XRPD, Purity and mDSC analysis of the above SDD samples is shown below. • PLM analysis of the SDD samples were conducted using Nikon LV100POL equipped with 5 megapixel CCD, with the physical lens set at 20×. • For XRPD analysis, samples were spread onto the Si-substrate for XRPD test using the parameters as below: Tube: Cu: K-Alpha (λ=1.5418 Å); Generator: Voltage: 40 kV; Current: 40 mA; Scan Scope: 2 or 3 to 40 deg; Time/step(s) 0.06 s; Total time(s) 120 s or 117.36 s. • For mDSC analysis, SDD powders were weighed into Tzero aluminum sample pan from TA Instruments covered by pinhole lid for mDSC test using the parameters as below: Start temperature at 30° C.; Modulate +/−1° C. every 60 seconds; Ramp 2° C./min to 300° C. • The UPLC method used for the assay and purity analysis above is UPLC Method 1, which is shown below:
Appropriate quantity of SDDs and crystalline Compound 1 (Form B) were placed into 40-mL vials respectively.
The samples (closed) were covered by plastic cap tightly and sealed by parafilm and samples (open) were just covered by aluminum foil with pinholes. Then they were stored at 2-8° C., 25° C./60% RH and 40° C./75% RH stability chamber respectively for 1 week. The samples were analyzed by XRPD to check the physical stability, and meanwhile dissolved with diluent for UPLC analysis (UPLC Method 1) to check the chemical stability.

[2] = Dynamic moisture sorption analysis (DVS); assay type: physicochemical
Experimental: Dynamic Moisture Sorption Analysis (DVS)
Small scale up of Form B: Form B was small scaled up for DVS analysis, solubility and stability studies. 103.02 mg of Compound 1 in Form A was dissolved in 5 mL of MeOH (48V) at RT. After filtration, 10 mL of water was added into the filtrate. Precipitation occurred quickly. The suspension was kept stirring at RT for about 2 hours. Solid samples were collected by filtration, dried under vacuum at 50° C. overnight. 94.16 mg solid was obtained with a yield of 91%. This solid was used for the DVS testing.

[3] = PCT/CN2020/137276 and PCT/CN2019/126230; cited from earlier work
[4] = Dissolution evaluation in FaSSIF medium; assay type: physicochemical
Experimental: Dissolution evaluation in FaSSIF medium: To evaluate in-vitro release performance of SDDs, dissolution in FaSSIF (pH=6.5±0.05) was performed, and the crystalline Compound 1 (Form B) was also tested as control.
Appropriate amount of Compound 1 or SDD (SDD-0 to SDD-8) was weighed into 40-mL glass vials respectively, and then added 10 mL of FaSSIF medium to a target API concentration of 1 mg/mL, followed by hand shake to suspend well. Place the glass bottle on 37° C. hot-stage by stirring magnetically at 200 rpm. At each time point of 10 min, 20 min, 40 min, 60 min and 120 min, 500 μL suspension was pipetted respectively and centrifuged (14,000 rpm, 3 min) to isolate supernatant and dilute with diluent for UPLC analysis. Finally, the pH value of solution (120 min) were measured by pH meter.
The UPLC method used for the dissolution analysis above is UPLC Method 2, which is shown below: […]

[5] = Solid state stability of Form B; assay type: physicochemical; details: for Purity-7 d (Area %): open, 7 days
Experimental: Solid State Stability of Form B: About 10 mg of Form B was open placed at 40° C./75% RH and 60° C. for 7 days and at 25° C./92.5% RH for 10 days, respectively. Prepare samples in duplicate (n =2) per condition. The solids were analyzed by XRPD and HPLC (only for 40° C./75% RH and 60° C.).

various cancers = details: as described in previous applications; cited from earlier work
KRAS G12C = KRAS G12C (Homo sapiens, UniProt P01116, G12C); details: as described in previous applications; cited from earlier work
[6] = pKa measurement of Compound 1; assay type: physicochemical; details: measured pKa; free base
Text: Compound 1 has a measured pKa of around 1 and typically exists in a free base form. Unless otherwise explicitly stated to the contrary, Compound 1 herein should be understood as existing in its free base form as opposed to a salt formed with an acid or base. The synthesis and utility of Compound 1 has been described in Applicant's previous applications, such as International Application Nos. PCT/CN2020/091274, filed May 20, 2020, published as WO2020/233592, PCT/CN2020/137276, filed Dec. 17, 2020, and PCT/CN2019/126230, filed Dec. 18, 2019, the contents of each of which are herein incorporated by reference in their entireties. […] PCT/CN2020/137276 and PCT/CN2019/126230 also describe various isolated forms, substantially pure forms, and/or solid forms of Compound 1 and their preparation methods.

[7] = Table 6, FaSSIF (10 mL) pH 6.5, 37° C., target API 1 mg/mL
[8] = Table 11, FaSSIF (10 mL) pH 6.5

Sequence of KRAS G12C (P01116 1-188 isoform P01116-2 G12C): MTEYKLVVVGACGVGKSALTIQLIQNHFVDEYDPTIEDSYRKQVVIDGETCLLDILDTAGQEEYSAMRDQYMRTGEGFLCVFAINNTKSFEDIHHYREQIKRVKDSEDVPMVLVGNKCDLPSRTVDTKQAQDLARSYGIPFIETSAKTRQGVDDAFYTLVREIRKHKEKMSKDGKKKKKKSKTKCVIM

SMILES: C=CC(=O)N1C[C@H](C)N(c2nc(=O)n(-c3c(C4CC4)ncnc3C3CC3)c3nc(-c4c(N)cccc4F)c(F)cc23)C[C@H]1C [Compound 1 (Form B)]
- Appearance ([1]; Table 8, 2-8° C., closed): Yellow powder
- Purity (%) ([1]; Table 8, 2-8° C., closed): 98.81%
- XRPD ([1]; Table 8, 2-8° C., closed): Crystal
- Appearance ([1]; Table 8, 25° C./60% RH, open): Yellow powder
- Purity (%) ([1]; Table 8, 25° C./60% RH, open): 98.86%
- XRPD ([1]; Table 8, 25° C./60% RH, open): Crystal
- Appearance ([1]; Table 8, 40° C./75% RH, open): Yellow powder
- Purity (%) ([1]; Table 8, 40° C./75% RH, open): 98.79%
- XRPD ([1]; Table 8, 40° C./75% RH, open): Crystal
- Initial purity (%) ([1]; Table 8): 98.75%
- Appearance ([1]; Table 12, 2-8° C., closed): Yellow powder
- Purity (%) ([1]; Table 12, 2-8° C., closed): 98.81%
- XRPD ([1]; Table 12, 2-8° C., closed): Crystal
- Appearance ([1]; Table 12, 25° C./60% RH, open): Yellow powder
- Purity (%) ([1]; Table 12, 25° C./60% RH, open): 98.86%
- XRPD ([1]; Table 12, 25° C./60% RH, open): Crystal
- Appearance ([1]; Table 12, 40° C./75% RH, open): Yellow powder
- Purity (%) ([1]; Table 12, 40° C./75% RH, open): 98.79%
- XRPD ([1]; Table 12, 40° C./75% RH, open): Crystal
- Initial purity (%) ([1]; Table 12): 98.75%
- water absorbed (DVS) ([2]; 0-80% RH, 25° C.): ~ 0.84%
- crystal form after DVS testing ([2]; XRPD after DVS): without changing of crystal form
- relative stability among crystalline Forms A, B, C, D [3]: more stable crystalline form
- API concentration in dissolution medium, 10 min [4, 7]: 12.5 µg/mL
- API concentration in dissolution medium, 20 min [4, 7]: 13.8 µg/mL
- API concentration in dissolution medium, 40 min [4, 7]: 15.0 µg/mL
- API concentration in dissolution medium, 60 min [4, 7]: 15.5 µg/mL
- API concentration in dissolution medium, 120 min [4, 7]: 15.9 µg/mL
- pH ([4]; Table 6, pH value of solution at 120 min of FaSSIF dissolution): 6.42
- API concentration in dissolution medium, 10 min [4, 8]: 10.8 µg/mL
- API concentration in dissolution medium, 20 min [4, 8]: 12.5 µg/mL
- API concentration in dissolution medium, 40 min [4, 8]: 14.3 µg/mL
- API concentration in dissolution medium, 60 min [4, 8]: 14.2 µg/mL
- API concentration in dissolution medium, 120 min [4, 8]: 14.9 µg/mL
- pH ([4]; Table 11, pH of solution after FaSSIF dissolution): 6.41
- API concentration in dissolution medium, 10 min ([4]; Table 15, FaSSIF (10 mL)): 8.1 µg/mL
- API concentration in dissolution medium, 20 min ([4]; Table 15, FaSSIF (10 mL)): 8.4 µg/mL
- API concentration in dissolution medium, 40 min ([4]; Table 15, FaSSIF (10 mL)): 9.0 µg/mL
- API concentration in dissolution medium, 60 min ([4]; Table 15, FaSSIF (10 mL)): 9.1 µg/mL
- API concentration in dissolution medium, 120 min ([4]; Table 15, FaSSIF (10 mL)): 9.7 µg/mL
- pH ([4]; Table 15, pH of solution after FaSSIF dissolution): 6.48
- XRPD ([5]; 25° C./92.5% RH, after 10 d): Unchanged
- chemical stability ([5]; 40° C./75% RH for 7 days): chemically stable
- XRPD ([5]; 40° C./75% RH, after 7 d): Unchanged
- Purity-7 d (Area %) ([5]; 40° C./75% RH): 98.97 Area %
- purity decrease ([5]; 60° C. for 7 days): 0.16%
- XRPD ([5]; 60° C., after 7 d): Unchanged
- Purity-7 d (Area %) ([5]; 60° C.): 98.82 Area %
- physical stability ([5]; at test conditions (40° C./75% RH, 60° C., 25° C./92.5% RH)): physically stable
- Initial Purity (Area %) ([5]; before storage): 98.98 Area %

SMILES: C=CC(=O)N1C[C@H](C)N(c2nc(=O)n(-c3c(C4CC4)ncnc3C3CC3)c3nc(-c4c(N)cccc4F)c(F)cc23)C[C@H]1C [Compound 1]
- efficacy in in vivo mouse models (various cancers): effective in treating various cancers
- KRAS G12C inhibition (KRAS G12C): potent KRAS G12C inhibitor
- pKa [6]: ~1
